This is an account of results in patent US11020372B2, “Dietary and natural product management of negative side effects of cancer treatment” (UNIVERSITY OF FLORIDA RESEARCH FOUNDATION, INC., priority 2015, dated 2021).

Series [1] relates to neural stem cells. In words: Neurosphere assay of periventricular cells from treated animals. Conditions: TMZ [20 mg/kg] or 5-FU [100 mg/kg] for two weeks. The series is classed as in vivo, Mice. The procedure: A] Periventricular cells from the brains of animals treated with the indicated treatments were isolated and cultured in the neurosphere assay at clonal density to quantify clonogenic frequency. […] Chemotherapies induced a decline of neural stem cell activity seen by decreased neurosphere formation, which can be improved when combined with our treatment, **, ***, p<0.01, p<0.001, one-way ANOVA. B-C] […] D-E] NSC activity was also measured in the hippocampus, region of the brain involved in cognition.
Mice were fed with control diet or MCT/LC/Curcumin/EGCG/SFN diet. Each dietary group was treated with TMZ [20 mg/kg] or 5-FU [100 mg/kg] for two weeks, after which point brains were harvested and the cells from the periventricular region were cultured at clonal density in the neurosphere assay during one passage (7-14 days) to quantify the sphere forming frequency indicating neural stem cells occurrence in the brains of animals treated with the different treatments.

Series [2] deals with Animals. The series can be described thus: Chemotherapy-induced leukopenia (CBC: white blood cells, neutrophils). The series is classed as in vivo. Conditions: 20 mg/kg TMZ, 100 mg/kg 5-FU; two weeks. The procedure:
Animals were treated with different chemotherapy agents inducing leukopenia (20 mg/kg TMZ, 100 mg/kg 5-FU). […] Blood samples were processed for CBC.

Series [3] concerns Mice. The series can be described thus: Von Frey test of mechanosensitivity (chemotherapy-induced peripheral neuropathy). Conditions: Von Frey filament 4 g; cumulative 25 mg/kg Paclitaxel, 40 mg/kg Oxaliplatin.
Procedure: Mechanosensitivity was compared between the different experimental groups. Von Frey test filament (4 g) was pressed to the plantar surface of the hindpaw until the filament just bent.
Animals were also tested for neuropathic pain using the Von Frey Test where the sensitivity of the animals to mechanical stimulus is measured. Similar to the cold allodynia assay, the animals were tested after cumulative doses of 25 mg/kg paclitaxel and 40 mg/kg oxaliplatin. Von Frey test filament (4 g) was pressed to the plantar surface of the hindpaw until the filament just bent. The percent positive response (i.e. paw withdrawal) was recorded.
Series [4] deals with Animals. In words: Chemotherapy-induced anemia (CBC: red blood cells, hematocrit, hemoglobin). Conditions: for anemia: level of red blood cell count, hemoglobin and hematocrit, chemotherapy agent alone: 20 mg/kg TMZ, 100 mg/kg 5-FU, 40 mg/kg oxaliplatin, two to four weeks; for hemoglobin level, chemotherapeutic agent alone: 100 mg/kg 5-FU or 40 mg/kg oxaliplatin. The procedure:
Animals were treated with three different chemotherapy agents inducing anemia (20 mg/kg TMZ, 100 mg/kg 5-FU, 40 mg/kg oxaliplatin). After two to four weeks of treatments blood was collected via retro-orbital puncture from the different experimental groups. Blood samples were processed for CBC.

The test system of the next series is healthy subjects. Conditions: 5000 to 12,000 mg/day; cited from earlier work.
Series [5] relates to rats, guinea pigs and monkeys. Conditions: cited from earlier work.
In another series the test system is rodents. Conditions: oral doses as high as 500 mg/kg in rodents; cited from earlier work.
In the next series the test system is dogs. To be noted: 500 mg/kg/day, divided dosage, pre-fed dogs, 13 weeks; cited from earlier work.
The test system of series [6] is Mice. The series can be described thus: Paclitaxel-induced nephrotoxicity and hepatotoxicity (kidney and liver mass). The format is in vivo. Conditions: Paclitaxel [5 mg/kg], 3-4 weeks of treatment. The procedure:
Targeted toxicity of the chemotherapeutic agent Paclitaxel was assessed after 3-4 weeks of treatment via measuring the mass of the kidneys.
Toxicity was assessed after 3-4 weeks of treatment via comparing the mass of the liver.
After four weeks of treatments, the organs were harvested and their mass determined.

The conditions of series [7]: in vivo; cited from earlier work.
A further series concerns neonatal rat. Conditions: cited from earlier work.
In series [8] the test system is patients with type 2 diabetes. To be noted: provided by oral intake of 68 grams of broccoli sprouts; cited from earlier work.
For series [9], the system named is neural stem cells. The series can be described thus: BrdU immunoreactivity of neural stem cells in sub-ventricular area and hippocampus. The series is classed as in vivo, Mice. As to the method:
A] Periventricular cells from the brains of animals treated with the indicated treatments were isolated and cultured in the neurosphere assay at clonal density to quantify clonogenic frequency. […] B-C] […] D-E] NSC activity was also measured in the hippocampus, region of the brain involved in cognition.
A cohort of animals received three injections of BrdU [50 mg/kg] over a 72-hour time period before to be euthanized. Brains were removed, fixed, sectioned and BrdU antibodies used to identify cells that were in S-phase during the 72 hour injection period.

The mark [10] stands for this setting: neonatal rat hypoxic-ischemic injury.

Consider `Cn1nnc2c(C(N)=O)ncn2c1=O` [TMZ, Temozolomide], for which the “sphere forming cells, chemotherapy agent alone” value in the series with neural stem cells [1] is on record as “decreased number of sphere forming cells”. Moreover, in the series on Animals [2], the “leukopenia: level of white blood cell and neutrophil count, chemotherapy agent alone” value is given as “induced leukopenia”.
Take `O=C1[O][Pt]2([NH][C@@H]3CCCC[C@H]3[NH]2)[O]C1=O` [oxaliplatin, Oxaliplatin]: the “mechanosensitivity (percent positive response, paw withdrawal), chemotherapy alone, FIG. 12” value with Mice [3] is recorded as “increased”. Further, in the series on Animals [4], the “anemia: level of red blood cell count, hemoglobin and hematocrit, chemotherapy agent alone” value is given as “induced anemia”; the “hemoglobin level, chemotherapeutic agent alone” value is reported as “significantly diminished”.
In the case of `COc1cc(/C=C/C(=O)CC(=O)/C=C/c2ccc(O)c(OC)c2)ccc1O` [curcumin, Curcumin], in the series on healthy subjects, the “adverse side effects in dose escalation” value was “no significant adverse side effects”. The “toxicity at high doses in preclinical models” value in series [5] is recorded as “safe”.
For Epigallocatechin-3-gallate [EGCG], in the series on rodents, the “genotoxic or short term toxicity” value was “no genotoxic or short term toxicity”. For the same molecule, the “adverse events or toxicity” value with dogs is “no adverse events or toxicity”.
Turning to `CC(=O)O[C@H]1C(=O)[C@@]2(C)[C@H]([C@H](OC(=O)c3ccccc3)[C@]3(O)C[C@H](OC(=O)[C@H](O)[C@@H](NC(=O)c4ccccc4)c4ccccc4)C(C)=C1C3(C)C)[C@]1(OC(C)=O)CO[C@@H]1C[C@@H]2O` [Paclitaxel], in the series with Mice [6], the “mass of the kidneys, drug alone” value is listed as “significant diminution of the kidney weight” and the “mass of the liver, drug alone” value is “significant liver enlargement”.
As to `C[S+]([O-])CCCCN=C=S` (centres unmarked) [SFN, sulforaphane], in [7], the elimination result was “long terminal elimination phase” and the “time to peak plasma levels” value was not above 2 h. Moreover, the infarct ratio result with neonatal rat (24 hours after hypoxic ischemia) is recorded as “reduced infarct ratio”. In the series on neonatal rat (setting [10]), the “expression of the Nrf2 antioxidative transcription factor in the brain” value is given as “increased the expression of the Nrf2” and the “number of apoptotic cells” value was “significantly decreased the number of apoptotic cells”. Also, the safe non-toxic dose in series [8] is recorded as 100 mg.
For `O=c1[nH]cc(F)c(=O)[nH]1` [5-FU, Fluorouracil], the “sphere forming cells, chemotherapy agent alone” value with neural stem cells [1] was “decreased number of sphere forming cells”. Moreover, in the series with Animals [4], the “anemia: level of red blood cell count, hemoglobin and hematocrit, chemotherapy agent alone” value is on record as “induced anemia”; the “hemoglobin level, chemotherapeutic agent alone” value is reported as “significantly diminished”. The “NSC activity (BrdU immunoreactivity) in the sub-ventricular area (SVZ), single treatment versus control” value in the series on neural stem cells [9] (diet alone or 5-FU alone) is given as “reduced level of BrdU+ve cells”. Besides, the “number of BrdU-immunoreactive proliferating neural stem cells relative to controls” value in the series with neural stem cells [9] (subventricular area and hippocampus, three BrdU injections [50 mg/kg] over 72 hours) was “less number of proliferating neural stem cells”. Also, the “leukopenia: level of white blood cell and neutrophil count, chemotherapy agent alone” value in the series with Animals [2] is reported as “induced leukopenia”.
